pEC50: −log10 of the molar value.

In general, pEC50 refers to −log10 of the EC50, conventionally taken in molar units. For orientation: Emax means the size of the effect at its maximum, as opposed to the concentration needed.

This experiment concerns the target human Kv7.2 (Homo sapiens (Human), UniProt O43526). The experiment is described as follows: SyncroPatch 384 electrophysiology, activation of Kv7.2 in CHO cells. The conditions noted are these: for pEC50: CHO cells stably expressing human Kv7.2, potassium current at -90 mV repolarizing step, in presence of zinc pyrithione; for Emax: CHO. In kind it is cell-based. As for the experimental part: The potency of Kv7 potentiators was determined using the SyncroPatch 384 (Nanion) high throughput electrophysiology platform.
CHO cells stably expressing either human Kv7.2, Kv7.4 or Kv7.5/7.3 under a constitutive CMV promoter were used for these studies. Cells were maintained in F12 Hams+1 mM L-glutamine (Hyclone) supplemented with 10% FBS (Sigma), 0.3×NEAA (Non-essential Gamino-acids) and 400 ug/ml G418 at 37° C. in 5% CO2. Cells were cultured in T-225 flasks (Nunc) for 2-3 days to reach 85-95% confluence prior to electrophysiological recording.
Earle's balanced salt solution (in mM): 135 NaCl, 5.4 KCl, 5 Glucose, 2 CaCl2, 1 MgCl2, 5 HEPES, pH 7.4. Seal enhancer solution (in mM): 90 NaCl, 3 KCl, 35 CaCl2, 10 MgCl2, 10 HEPES, pH 7.4. Extracellular recording solution (in mM): 71 NaCl, 70 NMDG, 13 KCl, 5 Glucose, 2 CaCl2, 1 MgCl2, 10 HEPES, pH 7.4. Intracellular recording solution (in mM): 130 KF, 20 KCl, 4 EGTA, 10 HEPES, 2 EDTA, 0.01 Escin, pH 7.2.
Cells were harvested for electrophysiological recording upon reaching appropriate confluence. Cells were first washed in DPBS (Hyclone, Cat #SH30028.03) and then 2 ml of Accutase (MP Biomedicals #1000449) was added at 28° C. until ˜90% of cells were suspended. F12 HAM's media+1 mM L-glutamine (Hyclone, SH30026.02) was then added to the flask to dilute the accutase. Cells were then triturated until a single cell suspension was achieved, a cell count was performed, and cells were centrifuged for 2 min. at 1,000 rpm. Media was then aspirated, and cells were resuspended in Earle's balanced salt solution to a concentration of 0.75×10^6 cells/ml and allowed to recover for 25 min at 10° C.
At the beginning of each assay, 20 μl of cell suspension was dispensed into each well of a multi-hole 384-well SyncroPatch chip by the onboard pipettor. Cell sealing was initiated, and seal enhancer solution was added to facilitate seal formation. Upon completion of sealing, cells were washed 3 times with extracellular recording solution and the assay voltage protocol was started. Human Kv7.2, Kv7.4 or Kv7.5/7.3 channels were evaluated using a voltage protocol in which cells were voltage-clamped at a holding potential of −60 mV. Potassium currents were continuously activated with a series of three voltage steps to −30 mV for 3 seconds, 40 mV for 1 second and −90 mV for 4 seconds with 12 seconds between successive voltage sweeps. Potassium currents were measured from the −90 mV repolarizing step. Baseline current was assessed for 3.5 minutes prior to the addition of 5.6 μM zinc pyrithione (1 μM for Kv7.4). Kv7.2, Kv7.4 or Kv7.5/7.3 current in the presence of zinc pyrithione was acquired over five minutes to allow channels to reach steady state activity prior to addition of test agents. Channel activity was monitored for three minutes preceding the addition of 30 μM ML-213 (3 minutes) to achieve maximum activation. 150 mM TEA with 10 μM XE-991 was applied for 2 minutes to measure the leak current during maximum inhibition of Kv7.2, Kv7.4 or Kv7.5/7.3 channels.
Data were collected on the SyncroPatch platform using PatchControl software (Nanion) and processed and analyzed using DataControl Software (Nanion). Percent activation was calculated from potassium current as follows: The average current for the 5 sweeps in the presence of zinc pyrithione immediately preceding test agent addition was taken as the ‘control’ data. Likewise, the average potassium current in the presence of test agents 5 sweeps immediately preceding addition of 30 μM ML-213 was determined for ‘drug’ data. The average potassium current 5 sweeps immediately prior to addition of 150 mM TEA+10 μM XE-991 was determined for ‘max activation’ data while average currents from 5 sweeps immediately following addition of TEA was determined for ‘max inhibition’ data. Percent activation for each of the 384-wells of a sealchip was calculated as ((‘drug’−‘max inhibition’)/(‘max activation’−‘max inhibition’))*100 with Pipeline Pilot (Accelrys). […]

The mark [1] stands for this setting: Kv7.2 activation max %, relative to 30 μM ML-213 max activation.

Regarding “1-[(1S,2R)-2-cyclohexylcyclopropyl]-3-[(2-imidazol-1-ylpyridin-4-yl)methyl]urea [Example 15]”, the pEC50 was 5.80. Besides, the “Kv7.2 Emax” value under setting [1] stood at 56%.

`COC[C@@H](Oc1cc(CNC(=O)N[C@@H]2C[C@H]2C(F)(F)F)ccn1)C(F)(F)F` (mixture of isomers) [Example 53, 1-[[2-[(2R)-1,1,1-trifluoro-3-methoxypropan-2-yl]oxypyridin-4-yl]methyl]-3-[rac-(1R,2R)-2-(trifluoromethyl)cyclopropyl]urea]: the pEC50 is 6.44. Besides, the Emax under setting [1] stood at 69%.

For the compound `O=C(NCc1ccnc(-n2cccn2)c1)N[C@@H]1C[C@H]1C1CCCCC1` (racemic) [Example 2, 1-[rac-(1R,2S)-2-cyclohexylcyclopropyl]-3-[(2-pyrazol-1-ylpyridin-4-yl)methyl]urea], the negative logarithm of the EC50 (pEC50) is 6.24. Moreover, the Emax under setting [1] was determined as 84%.

In the case of `O=C(NCc1cccc(Cl)n1)N[C@@H]1C[C@H]1C1CCCCC1` (racemic) [Example 3, 1-[(6-chloropyridin-2-yl)methyl]-3-[rac-(1R,2S)-2-cyclohexylcyclopropyl]urea], the pEC50 was 5.81. The Emax under setting [1] amounted to 77%.

On to `CC(C)c1nccc(CNC(=O)N[C@@H]2C[C@H]2C2CCCCC2)n1` (racemic) [Example 4, 1-[(2-propan-2-ylpyrimidin-4-yl)methyl]-3-[rac-(1R,2S)-2-cyclohexylcyclopropyl]urea], for which the pEC50 was 5.36. In addition, the Emax under setting [1] was determined as 71%.

In the case of `COc1cc(CNC(=O)N[C@@H]2C[C@H]2c2ccccc2)ccn1` (racemic) [Example 5, 1-[(2-methoxypyridin-4-yl)methyl]-3-[rac-(1R,2S)-2-phenylcyclopropyl]urea], the pEC50 is 5.43. Under setting [1], the Emax turned out to be 44%.

For the compound `N#Cc1cc(CNC(=O)N[C@@H]2C[C@H]2c2ccccc2)ccn1` (racemic) [Example 8, 1-[(2-cyanopyridin-4-yl)methyl]-3-[rac-(1R,2S)-2-phenylcyclopropyl]urea], the pEC50 is 5.38. For the same compound, the Emax under setting [1] is 40%.

On to `O=C(NCc1ccnc(-n2cccn2)c1)N[C@@H]1C[C@H]1c1ccccc1` (racemic) [Example 12, 1-[(2-pyrazol-1-ylpyridin-4-yl)methyl]-3-[rac-(1R,2S)-2-phenylcyclopropyl]urea], for which the pEC50 is 6.17. Besides, the maximal effect (Emax) under setting [1] came to 69%.

On to `O=C(NCc1ccnc(Cl)c1)N[C@@H]1C[C@H]1C1CCCCC1` (racemic) [Example 17, 1-[(2-chloropyridin-4-yl)methyl]-3-[rac-(1R,2S)-2-cyclohexylcyclopropyl]urea], for which the pEC50 was 5.75. In addition, the maximum response (Emax) under setting [1] was determined as 61%.

As for `O=C(NCc1ccnc(-c2cnco2)c1)N[C@@H]1C[C@H]1C1CCCCC1` (racemic) [Example 23, 1-[[2-(1,3-oxazol-5-yl)pyridin-4-yl]methyl]-3-[rac-(1R,2S)-2-cyclohexylcyclopropyl]urea], the pEC50 is 6.04. Besides, under setting [1], the maximum response (Emax) was 63%.

For `O=C(NCc1ccnc(-n2cnc(C(F)(F)F)c2)c1)N[C@@H]1C[C@H]1C1CCCCC1` (racemic) [Example 24, 1-[rac-(1R,2S)-2-cyclohexylcyclopropyl]-3-[[2-[4-(trifluoromethyl)imidazol-1-yl]pyridin-4-yl]methyl]urea], the pEC50 was 6.80. Besides, the Emax under setting [1] stood at 45%.

Turning to `C[C@@]1(NC(=O)NCc2ccnc(OC(F)F)c2)C[C@H]1c1ccccc1` (racemic) [Example 36, 1-[[2-(difluoromethoxy)pyridin-4-yl]methyl]-3-[rac-(1R,2S)-1-methyl-2-phenylcyclopropyl]urea], the pEC50 is 6.92. Also, the Emax under setting [1] came to 69%.

Regarding `O=C(NCc1ccnc(-c2cnsc2)c1)N[C@@H]1C[C@H]1C1CCCCC1` (racemic) [Example 40, 1-[rac-(1R,2S)-2-cyclohexylcyclopropyl]-3-[[2-(1,2-thiazol-4-yl)pyridin-4-yl]methyl]urea], the pEC50 was 6.11. In addition, the maximal effect (Emax) under setting [1] came to 57%.

As for `C[C@H]1[C@H](NC(=O)NCc2ccnc(OC(F)F)c2)C1(F)F` (racemic) [Example 42, 1-[[2-(difluoromethoxy)pyridin-4-yl]methyl]-3-[rac-(1R,3R)-2,2-difluoro-3-methylcyclopropyl]urea], the pEC50 was 5.99. In addition, the Emax under setting [1] came out at 58%.

With `O=C(NCc1ccnc(OC(F)F)c1)N[C@@H]1C[C@H]1C1CCCO1` (mixture of isomers) [Example 43, 1-[[2-(difluoromethoxy)pyridin-4-yl]methyl]-3-[rac-(1R,2R)-2-(oxolan-2-yl)cyclopropyl]urea], the pEC50 was 5.10. Besides, under setting [1], the Emax came out at 61%.

For the compound `CC(F)(F)[C@@H]1C[C@H]1NC(=O)NCc1ccnc(OC(F)F)c1` (racemic) [Example 44, 1-[[2-(difluoromethoxy)pyridin-4-yl]methyl]-3-[rac-(1R,2R)-2-(1,1-difluoroethyl)cyclopropyl]urea], the pEC50 was 6.48. Further, under setting [1], the Emax is 40%.

As for `C[C@@H]1C[C@H]1NC(=O)NCc1ccnc(OC(F)F)c1` (racemic) [Example 46, 1-[[2-(difluoromethoxy)pyridin-4-yl]methyl]-3-[rac-(1R,2R)-2-methylcyclopropyl]urea], the pEC50 is 6.05. The maximum response (Emax) under setting [1] worked out at 51%.

Regarding `C[C@]1(C(F)(F)F)C[C@@H]1NC(=O)NCc1ccnc(OC(F)F)c1` (racemic) [Example 47, 1-[[2-(difluoromethoxy)pyridin-4-yl]methyl]-3-[rac-(1R,2R)-2-methyl-2-(trifluoromethyl)cyclopropyl]urea], the pEC50 is 7.30. For the same compound, the Emax under setting [1] stood at 77%.

For `[2H]C([2H])(NC(=O)N[C@@H]1C[C@H]1C(F)(F)F)c1ccnc(OC(F)F)c1` (racemic) [Example 50, 1-[dideuterio-[2-(difluoromethoxy)pyridin-4-yl]methyl]-3-[rac-(1R,2R)-2-(trifluoromethyl)cyclopropyl]urea], the pEC50 is 6.21. Moreover, the Emax under setting [1] is 47%.

For the compound `O=C(NCc1cc(OCC(F)(F)F)ncn1)N[C@@H]1C[C@H]1C(F)(F)F` (racemic) [Example 51, 1-[rac-(1R,2R)-2-(trifluoromethyl)cyclopropyl]-3-[[6-(2,2,2-trifluoroethoxy)pyrimidin-4-yl]methyl]urea], the negative logarithm of the EC50 (pEC50) is 6.55. Besides, the Emax under setting [1] turned out to be 52%.

For the compound `C[C@@H](NC(=O)N[C@@H]1C[C@H]1c1ccccc1)c1ccnc(OC(F)F)c1` (stereo in doubt) [Example 38], the negative-log EC50 (pEC50) is 5.42. Further, under setting [1], the Emax amounted to 42%.

For `N#Cc1ccnc(CNC(=O)N[C@@H]2C[C@H]2c2ccccc2)c1` [Example 1, 1-[(4-cyanopyridin-2-yl)methyl]-3-[(1R,2S)-2-phenylcyclopropyl]urea], the pEC50 was 5.33. Further, the maximal response (Emax) under setting [1] is 73%.

For `CC(C)Oc1cc(CNC(=O)N[C@@H]2C[C@H]2c2ccccc2)ccn1` [Example 6, 1-[(1R,2S)-2-phenylcyclopropyl]-3-[(2-propan-2-yloxypyridin-4-yl)methyl]urea], the pEC50 was 6.18. Besides, the Emax under setting [1] amounted to 64%.

Regarding `O=C(NCc1ccnc(OC(F)F)c1)N[C@@H]1C[C@H]1c1ccccc1` [Example 7, 1-[[2-(difluoromethoxy)pyridin-4-yl]methyl]-3-[(1R,2S)-2-phenylcyclopropyl]urea], the pEC50 is 7.00. Further, the Emax under setting [1] was 71%.

These data come from US20240336571A1, “NOVEL CYCLOPROPYL COMPOUNDS” (ICAGEN, LLC, priority 2021, published 2024).
